Laboratory results: patent US20220332763A1, “FUSED POLYPEPTIDE AND USE THEREOF” (NANJING ANJI BIOLOGICAL TECHNOLOGY CO., LTD., priority 2019, published 2022)
Where no end group is shown, it is not given here.

Assays:
[1] = system: LX-2 hepatic stellate cells; assay: In vitro hepatic fibrosis model, MTT assay; type: cell-based; conditions: 1 μmol/L; for Inhibition of proliferation (in words): 24 hours and 48 hours, Example 2; for Optical density value, 12 h / Optical density value, 24 h / Optical density value, 48 h: LX-2 cells, MTT, OD at 570 nm; for Optical density value, 12 h: blank group 0.456 ± 0.012; for Optical density value, 24 h: blank group 0.548 ± 0.01; for Optical density value, 48 h: blank group 0.812 ± 0.016
Protocol: (§1) The inhibitory effect of a polypeptide on LX-2 hepatic stellate cells was detected by MTT assay. Cells were cultured in a 1640 medium containing 10% of FBS, the […] was made into 4×10^5/mL cell suspension, and 100 μL per well was inoculated into a 96-well plate. After the cells adhered to the wall, the medium was replaced with a serum-free 1640 medium, and the serum-free medium was discarded after 24 hours. The cells were cultured with different polypeptides of 1 μmol/L, and 5 multiple wells were set for each concentration. After 12, 24 and 48 hours separately, 10 μL of MTT was added to each well. After 4 hours, MTT was sucked out, and 150 μL of DMSO was added to each well. After reaction for 5 min, an OD value was measured at 570 nm by a microplate reader.

[2] = system: HYP; assay: Bleomycin skin fibrosis model, HYP content in skin tissue; type: in vivo, C57/BL black mice; conditions: bleomycin skin fibrosis mice; 10 mg/kg subcutaneous twice a day, 28 days; FIG. 4
Protocol: Bleomycin (10 μg/mL) was injected subcutaneously every day for 28 days to form skin fibrosis. During the modeling period, the administration groups were given polypeptide drugs twice a day for treatment. After modeling, the mice were killed on the next day, and the skin tissue of the mouse back was taken to detect the content of HYP in the skin tissue.

[3] = system: TGF-β1; assay: Renal fibrosis animal model (ureter ligation), TGF-β1 in serum; type: in vivo; conditions: SD rats with renal fibrosis; 7.5 mg/kg subcutaneous twice a day, 14 days; FIG. 3
Protocol: A renal fibrosis animal model was established. SD rats were anesthetized with 4% chloral hydrate, injected with 1 mL/100 g intraperitoneally, fixed to an operation board, and sterilized in an operation area for later use. […] Muscular layers and abdominal walls were sewed layer by layer, the suture was disinfected with alcohol. After SD rats woke up, the rats were put into a cage for feeding. In the blank group, ureter was not ligated, and other steps were the same.
Then, the animals fell into a blank group, a model group, and polypeptide administration groups, with 10 animals in each group, and the administration was started on the second day after the operation, twice a day for 14 days. After administration for 14 days, blood was taken and supernatant was taken to detect the content of TGF-β1 in serum.

[4] = system: SD rats with bleomycin-induced pulmonary fibrosis; assay: Bleomycin-induced pulmonary fibrosis animal model; type: in vivo; conditions: dosage 10 mg/kg in Table 2, administration 14 days, model group 50
Protocol: SD rats were anesthetized by intraperitoneal injection of 1 mL/100 g 4% chloral hydrate. After anesthesia, the rats were fixed and their necks were disinfected by using cotton with 75% alcohol. The skin of the rat neck was longitudinally cut with scissors, and the fascia and muscle were longitudinally bluntly torn with tweezers to expose the trachea. A syringe was inserted into the trachea to inject 5 mg/kg bleomycin, while a blank group was injected with an equal amount of normal saline. Then a rat plate was quickly erected and rotated, the rats' breathing was observed, the neck wound was sterilized after rotation and was sewn, and an amoxicillin anti-inflammatory drug was sprinkled on the suture. After the operation, the rats were put back into a dry and clean cage for resting, waiting was performed for awakening. The rats were awakened after about 1-2 hours, and then fed normally. On the 7th day after modeling, modeling group animals randomly fell into a model group, a Nintedanib positive drug group, polypeptide I, II, III, IV, V, VI dosage groups, and a normal control group, and the groups were administered separately for an administration cycle of 14 days. Living situations of rats were observed every day and their weights were weighed. After administration for 14 days, the SD rats were dissected, the lung tissue was taken, and the right lung tissue was placed in a tissue fixative only for fixation, and HE staining and Masson staining and slice analysis were performed.

[5] = system: cardiac fibroblasts of rats; assay: Myocardial fibrosis model, MTT assay; type: cell-based; conditions: 1 μmol/L; for Inhibition of proliferation of cardiac fibroblasts of rats (in words): 24 hours and 48 hours; for Optical density value, 12 h / Optical density value, 24 h / Optical density value, 48 h: cardiac fibroblasts of rats, MTT, OD at 570 nm; for Optical density value, 12 h: blank group 0.353 ± 0.001; for Optical density value, 24 h: blank group 0.464 ± 0.018; for Optical density value, 48 h: blank group 0.896 ± 0.001
Protocol: as §1, with “cardiac fibroblasts of rats” for “LX-2 hepatic stellate cells”, “DMEM” for “1640”, “1×10^5/mL” for “4×10^5/mL”

Compound | Inhibition of proliferation (in words) [1] | Optical density value, 12 h [1] | Optical density value, 24 h [1] | Optical density value, 48 h [1] | Expression of HYP content in tissue versus model group [2] | Content of TGF-β1 in serum versus model group [3] | Survival rate (%) [4] [%] | Inhibition of proliferation of cardiac fibroblasts of rats (in words) [5] | Optical density value, 12 h [5] | Optical density value, 24 h [5] | Optical density value, 48 h [5]
TSLDASIIWAMMQNGGGGSDKPGGGGLSKL [Polypeptide III, Thr-Ser-Leu-Asp-Ala-Ser-Ile-Ile-Trp-Ala-Met-Met-Gln-Asn-linker-Ser-Asp-Lys-Pro-linker-Leu-Ser-Lys-Leu] | could inhibit the proliferation | 0.455 ± 0.002 | 0.435 ± 0.013 | 0.642 ± 0.018 | highly significantly different from the model group (*P<0.05) | highly significantly different from the model group (**P<0.01) | 80 | could inhibit the proliferation | 0.349 ± 0.012 | 0.413 ± 0.003 | 0.612 ± 0.018
LSKLGGGGSDKPGGGGTSLDASIIWAMMQN [Polypeptide V, Leu-Ser-Lys-Leu-linker-Ser-Asp-Lys-Pro-linker-Thr-Ser-Leu-Asp-Ala-Ser-Ile-Ile-Trp-Ala-Met-Met-Gln-Asn] | could inhibit the proliferation | 0.462 ± 0.004 | 0.477 ± 0.015 | 0.618 ± 0.015 | highly significantly different from the model group (*P<0.05) | highly significantly different from the model group (**P<0.01) | 70 | could inhibit the proliferation | 0.357 ± 0.024 | 0.397 ± 0.015 | 0.588 ± 0.019
TSLDASIIWAMMQNGGGGLSKLGGGGSDKP [Polypeptide IV, Thr-Ser-Leu-Asp-Ala-Ser-Ile-Ile-Trp-Ala-Met-Met-Gln-Asn-linker-Leu-Ser-Lys-Leu-linker-Ser-Asp-Lys-Pro] | could inhibit the proliferation | 0.478 ± 0.018 | 0.472 ± 0.03 | 0.580 ± 0.012 | highly significantly different from the model group (***P<0.001) | highly significantly different from the model group (***P<0.001) | 80 | could inhibit the proliferation | 0.362 ± 0.015 | 0.392 ± 0.008 | 0.583 ± 0.012
COC(=O)c1ccc2c(c1)NC(=O)/C2=C(\Nc1ccc(N(C)C(=O)CN2CCN(C)CC2)cc1)c1ccccc1 [Positive drug group, Nintedanib, reference compound] | – | – | – | – | – | – | 90 | – | – | – | –
